# Tests used:
# pH of DiNAC solution = assay type: physicochemical
# Description: (§1) Pharmacologic Agents: Recombinant human tPA (Sigma-Aldrich, St. Louis, MO), recombinant human ADAMTS-13 (MyBiosource, San Diego, CA), abciximab (ReoPro was kindly provided by Dr. Kevin Maher at Emory/CHOA), NAC (Thermo Fisher Scientific, Waltham, MA), and DiNAC (Cayman Chemical, Ann Arbor, Ml) or control (PBS) treatments were perfused for an hour at a flow rate of 1 ml/min. Agent solutions were made by dissolution or dilution in PBS. The in vitro flow system setup and image acquisition are shown in FIG. 2, and the concentrations of each agent are detailed in Table 2.
# To confirm the efficacy of DiNAC, the dose response was tested at increasing concentrations of 0.02, 0.2, 2, and 20 mM. The thrombus area reduction was dependent on the concentration of DiNAC (FIG. 4). […] Considering the practical use of the DiNAC as a thrombolytic in a clinical setting, the 20 mM DiNAC with sodium bicarbonate to a final pH=7. Neutralization of 20 mM DiNAC reduced the variance from 47% to 12% in surface area reduction (44±47% vs 59±12%, p=0.77, FIG. 4).
# [1] = system: VWF- and platelet-rich white thrombi; test: Lysis of platelet-rich white thrombi in collagen-coated stenotic capillary tube under arterial shear (perfusion of lytic agents); assay type: cell-based, Porcine
# Description: Collagen Coating: The stenotic glass test sections (inner diameter=1.5 mm) described herein were made by the Chemistry and Biochemistry Glass Shop at Georgia Institute of Technology. The % stenosis by diameter reduction ranged from 60% to 80%. Fibrillar equine collagen (type I; Chrono-Log Corporation, Havertown, PA) was diluted 9:1 in NaCl (Sigma-Aldrich, St. Louis, MO) and incubated in the test section at the stenosis for 24 h in a warm, moist environment (Para, A., Bark, D., Lin, A. & Ku, D. Rapid platelet accumulation leading to thrombotic occlusion. Ann Biomed Eng 39, 1961-1971, 2011; Para, A. N. & Ku, D. N. A low-volume, single pass in-vitro system of high shear thrombosis in a stenosis. Thromb Res 131, 418-424, 2013).
# (§2) Blood Collection: Porcine blood was collected at a local abattoir immediately following slaughter into 3.5 U/mL heparin (Thermo Fisher Scientific, Waltham, MA) or 3.2% sodium citrate (Sigma-Aldrich, St. Louis, MO). Whole blood was gently agitated using an Orbit LS shaker (Laboratory Supply Network, Atkinson, NH) until perfusion and used in experiments as soon as possible the same day as collection.
# Syringe Perfusion: Lightly heparinized whole blood was perfused through the stenotic test section using a syringe pump. The flow rate was set so that the initial wall shear rate in the stenosis was 3,500 s^−1. A pressure transducer was connected in-line upstream of the stenosis (FIG. 2A). A dissecting microscope with a camera (PCO-Tech Incorporated, Romulus, MI) was used to capture images in real-time during perfusion. Blood perfusion continued until the upstream pressure increased by 30 mmHg (equivalent to an arterial pressure head in vivo) as a result of platelet thrombus formation in the stenotic section. Perfusion with a syringe pump (constant flow rate over constant pressure head) ensured that the thrombi were never fully occlusive, allowing subsequent perfusion for the induction of lysis.
# as §1
# Real-time image capture (5 frames per second) of the stenosis continued throughout treatment perfusion.
# Data Analysis: The thrombi surface area (which was colored green) was calculated using manual pixel counting in the open-source GNU Image Manipulation Program (GIMP, Version 2.10.8, 1995-2018). Surface area reduction was calculated by % pixel reduction versus the occlusion image. Analysis of variance (ANOVA) was used to test for statistical differences between groups, with the significance set at p<0.05.
# In this example, a stenotic capillary tube model, which potentiates VWF- and platelet-rich white thrombi in an arterial setting on a collagen-coated stenosis was used (Para, A., Bark, D., Lin, A. & Ku, D. Rapid platelet accumulation leading to thrombotic occlusion. Ann Biomed Eng 39, 1961-1971, 2011; Ku, D. N. & Flannery, C. J. Development of a flow-through system to create occluding thrombus. Biorheology 44, 273-284, 2007; Para, A. N. & Ku, D. N. A low-volume, single pass in-vitro system of high shear thrombosis in a stenosis. Thromb Res 131, 418-424, 2013) to test lysis of 90% occlusive white thrombi (FIG. 2) and perfused low (2 mM) and high (20 mM) concentrations of NAC and DiNAC solutions. As illustrated in FIG. 2. DiNAC, but not NAC, achieved thrombolysis over 60 minutes of perfusion (FIG. 3A-3D). 2 mM and 20 mM DiNAC lysed most of the thrombi (>95%) within 14 min and 1.5 min, respectively (FIG. 3A-3B).
# [2] = system: fibrin clots from recalcified platelet rich plasma (PRP); test: Red clot lysis under stagnant conditions, PRP clots; assay type: cell-based, Porcine; details: 48 h, DiNAC and NAC at 2 mM
# From the text: as §2
# (§3) Red clot formation and lysis: Platelet rich plasma (PRP) was made by separating citrated whole blood via gravity over a 2 h period and collecting the supernatant. Separation via gravity was employed instead of centrifugation to avoid platelet damage and activation. Citrated whole blood or PRP was then recalcified with CaCl2 to a final [Ca^2+] of 10 mM (Griffin, M. T., Kim, D. & Ku, D. N. Shear-induced platelet aggregation: 3D-grayscale microfluidics for repeatable and localized occlusive thrombosis. Biomicrofluidics 13, 2019), and 200 μl was transferred into 500 μal centrifuge tubes and allowed to clot and retract for 30 min. The clot was then incubated with 100 μl of either agent or control solution. The treatment solution was exchanged by removing the top 100 μl and replacement with fresh solution at 3, 6, 12, 24, and 48 h of incubation. The weight of the tube was measured immediately post-clot formation and at each timepoint after removal of old solution and prior to the replacement with fresh solution.
# [3] = system: fibrin clots from recalcified citrated whole blood; test: Red clot lysis under stagnant conditions, whole blood clots; assay type: cell-based, Porcine; details: whole blood clot, 48 h; DiNAC and NAC at 2 mM
# From the text: as §2, §3
# [4] = system: platelet-rich thrombi from heparinized human whole blood; test: Example 4: thrombolysis of human blood thrombi in 3 mm collagen-coated stenotic capillary tubes; assay type: cell-based; details: human whole blood thrombus
# Description: In this example, an in-vitro randomized trial was performed using heparinized human blood in collagen-coated glass capillary tubes with a designed stenosis, mimicking arterial disease. Heparinized human blood was then infused through 3 mm capillary tubes at a constant flow rate, during which near-occlusive thrombi were formed at the region of stenosis (FIG. 11). DiNAC was then infused at a constant flow rate through the capillary tubes in order to observe thrombolytic activity, using a combination of live pressure monitoring and microscopic image capture. All infusions were control-matched with a phosphate-buffered saline solution in lieu of DiNAC.
# white clots = test: Example 3: thrombolytic activity on white clots, procedures of Examples 1 and 2; assay type: cell-based, Porcine; details: DiNAC: clot breakup over 10 minutes; comparators at 1 hour
# Description: In this example, use of DiNAC and other agents as anti-thrombotic agents was tested. A white clot formation in the artery system was modeled by a collagen coated glass capillary tube (Ku DN, Flannery CJ. Development of a flow-through system to create occluding thrombus, Biorheology, 2007; 44(4)273-84). Porcine blood was perfused into the capillary tube using a constant pressure head or a constant flow rate (Para AN, Ku DN. A low-volume, single pass in vitro system of high shear thrombosis in a stenosis, Thrombosis Research, 2013, 131(5):418-24). After clot formation, a thrombolytic agent was perfused into the capillary tube. The detailed capillary tube experimental protocol is summarized below.
# In this example, the thrombolytic activity of DiNAC and other lytic agents was tested, using the procedures described in Examples 1 and 2.
# FeCl-induced thrombi = details: NAC treatment alone, in vivo mice model; cited from earlier work
# [5] = system: FeCl3 injury-induced thrombus; parameters: dose or concentration left out as unconfirmed; details: after a 60 min treatment; FeCl3 injury in vivo; ADAMTS-13; cited from earlier work
molecule,measurement,setting,value
"CC(=O)N[C@@H](CSSC[C@H](NC(C)=O)C(=O)O)C(=O)O [DiNAC, N,N′-diacetyl-cystine]",pH of solution,pH of DiNAC solution; 2 mM solution,7
same,pH of solution,pH of DiNAC solution; 20 mM solution,2
same,thrombus area vs control,"[1]; 0.02 mM, 60 min perfusion",not significantly different from the control
same,thrombus area reduction,"[1]; 0.2 mM, 60 min perfusion",46±15%
same,thrombus surface area reduction,"[1]; 20 mM acidic solution (not neutralized), 60 min perfusion",44±47%
same,thrombus surface area reduction,"[1]; 20 mM neutralized with sodium bicarbonate to pH=7, 60 min perfusion",59±12%
same,PRP clot lysis over 48 h,[2],no effect on red clots
same,whole blood clot lysis over 48 h,[3],no effect on red clots
same,time to complete lysis of the white clot,[4]; 20 mM perfusion,≤ 10 min
same,thrombolytic activity on white clots,white clots,highly effective at causing lysis of white clots
"CC(=O)N[C@@H](CS)C(=O)O [NAC, N-acetylcysteine, reference compound]",reperfusion,FeCl-induced thrombi,< 40%
same,lysis on perfusion,"[1]; 2 mM and 20 mM, 60 min perfusion",minimal lysis
same,thrombus surface area reduction,"[1]; 2 mM, 60 min perfusion",< 20%
same,lysis after 60 min perfusion,"[1]; 20 mM, 60 min",minimal lysis
same,PRP clot lysis over 48 h,[2],no effect on red clots
same,whole blood clot lysis over 48 h,[3],no effect on red clots
same,thrombolytic activity on white clots,white clots,minimal effects with no perfusion at 1 hour
"Abciximab: inhibits platelet thrombus formation by blocking the glycoprotein IIb/IIIa through an antibody (antibody, chains of the INN, looked up, V domains shown, Fab) VH: EVQLQQSGTVLARPGASVKMSCEASGYTFTNYWMHWVKQRPGQGLEWIGAIYPGNSDTSYIQKFKGKAKLTAVTSTTSVYMELSSLTNEDSAVYYCTLYDGYYVFAYWGQGTLVTVSA VL: EIVLTQSPVTLSVTPGDSVSLSCRASRDISNNLHWFQQTSHESPRLLIKYASQSMSGIPSRFSGSGSGTDFTLSINSVETEDFGMYFCQQTNSWPYTFGGGTKLEIK",reduction in thrombus area,"[1]; […] (Table 2), 60 min perfusion",22±11%
same,thrombolytic activity on white clots,white clots,minimal effects with no perfusion at 1 hour
"ADAMTS-13: recombinant human ADAMTS-13, a protease that cleaves VWF (protein, UniProt Q76LX8 75-1427, looked up) A disintegrin and …: AAGGILHLELLVAVGPDVFQAHQEDTERYVLTNLNIGAELLRDPSLGAQFRVHLVKMVILTEPEGAPNITANLTSSLLSVCGWSQTINPEDDTDPGHADLVLYITRFDLELPDGNRQVRGVTQLGGACSPTWSCLITEDTGFDLGVTIAHEIGHSFGLEHDGAPGSGCGPSGHVMASDGAAPRAGLAWSPCSRRQLLSLLSAGRARCVWDPPRPQPGSAGHPPDAQPGLYYSANEQCRVAFGPKAVACTFAREHLDMCQALSCHTDPLDQSSCSRLLVPLLDGTECGVEKWCSKGRCRSLVELTPIAAVHGRWSSWGPRSPCSRSCGGGVVTRRRQCNNPRPAFGGRACVGADLQAEMCNTQACEKTQLEFMSQQCARTDGQPLRSSPGGASFYHWGAAVPHSQGDALCRHMCRAIGESFIMKRGDSFLDGTRCMPSGPREDGTLSLCVSGSCRTFGCDGRMDSQQVWDRCQVCGGDNSTCSPRKGSFTAGRAREYVTFLTVTPNLTSVYIANHRPLFTHLAVRIGGRYVVAGKMSISPNTTYPSLLEDGRVEYRVALTEDRLPRLEEIRIWGPLQEDADIQVYRRYGEEYGNLTRPDITFTYFQPKPRQAWVWAAVRGPCSVSCGAGLRWVNYSCLDQARKELVETVQCQGSQQPPAWPEACVLEPCPPYWAVGDFGPCSASCGGGLRERPVRCVEAQGSLLKTLPPARCRAGAQQPAVALETCNPQPCPARWEVSEPSSCTSAGGAGLALENETCVPGADGLEAPVTEGPGSVDEKLPAPEPCVGMSCPPGWGHLDATSAGEKAPSPWGSIRTGAQAAHVWTPAAGSCSVSCGRGLMELRFLCMDSALRVPVQEELCGLASKPGSRREVCQAVPCPARWQYKLAACSVSCGRGVVRRILYCARAHGEDDGEEILLDTQCQGLPRPEPQEACSLEPCPPRWKVMSLGPCSASCGLGTARRSVACVQLDQGQDVEVDEAACAALVRPEASVPCLIADCTYRWHVGTWMECSVSCGDGIQRRRDTCLGPQAQAPVPADFCQHLPKPVTVRGCWAGPCVGQGTPSLVPHEEAAAPGRTTATPAGASLEWSQARGLLFSPAPQPRRLLPGPQENSVQSSACGRQHLEPTGTIDMRGPGQADCAVAIGRPLGEVVTLRVLESSLNCSAGDMLLLWGRLTWRKMCRKLLDMTFSSKTNTLVVRQRCGRPGGGVLLRYGSQLAPETFYRECDMQLFGPWGEIVSPSLSPATSNAGGCRLFINVAPHARIAIHALATNMGAGTEGANASYILIRDTHSLRTTAFHGQQVLYWESESSQAEMEFSEGFLKAQASLRGQYWTLQSWVPEMQDPQSWKGKEGT",reduction of thrombus size,[5],62.3%
same,thrombus area reduction,"[1]; 1 g/mL (Table 2), 60 min perfusion",19±8%
same,PRP clot lysis over 48 h,[2],no effect on red clots
same,whole blood clot lysis over 48 h,[3],no effect on red clots
same,effect on clots and flow,[4]; perfusion,did not alter the clots or restore flow
same,thrombolytic activity on white clots,white clots,minimal effects with no perfusion at 1 hour

# From patent US20230372272A1, “USE OF CYSTINE AND DERIVATIVES THEREOF AS ANTI-THROMBOTIC AND THROMBOLYTIC AGENTS” (Georgia Tech Research Corporation, priority 2020, published 2023)
